Results taken from patent publication US10463644B2, “Uses of sesquiterpene lactone compounds and their derivatives in drugs preparation” (ACCENDATECH, priority 2013, dated 2019).
Read-outs that look alike come from different tables or passages of the source.

Assays:
[1] = tested on: cancer cells; assay: Survival rate of cancer cells after test compound is added (flow cytometry, Annexin V-FITC/PI, clinical specimen); format: cell-based, patient; details: Homo sapiens, 18 h, read-out: Survival rate (%) All cells (Stem cells and ordinary cells)
How it was run: (§1)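 Patient tumour or leukaemia cells, identified by cancer-specific stem-cell markers (CD34+/CD38+ for AML), are treated with compound for 18 hours in serum-free IMDM. Apoptosis is then measured as Annexin V-FITC/PI staining by flow cytometry.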

[2] = tested on: IL-1β secreted by synoviocyte; assay: Content of IL-1β in culture supernatant of synoviocyte of RA model rats given test compound; format: in vivo; details: rat RA model, dose 30 mg/kg.2d; normal control 0.16 ± 0.034, NaCl 0.49 ± 0.136
How it was run: (§2)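 Animals with induced RA are grouped and dosed with compound (30 mg/kg.2d) alongside NaCl and normal controls. Synoviocytes are prepared and cultured, and supernatants are harvested. TNF-α and PGE2 secretion are then quantified by one procedure, IL-1β by another.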

[3] = tested on: normal cells; assay: Survival rate of normal cells after test compound is added (flow cytometry, Annexin V-FITC/PI); format: cell-based; details: 18 h
How it was run: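 Patient specimens (e.g. AML, CD34+/CD38+ stem-cell marker) separated on Ficoll; mononuclear cells at 1×10^6/mL in serum-free IMDM treated 18 h with compound. Cells stained for stem-cell markers, then Annexin V-FITC/PI, and apoptosis measured by flow cytometry within one hour.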

[4] = tested on: PGE2 secreted by synoviocyte; assay: Content of PGE2 in culture supernatant of synoviocyte of RA model rats given test compound; format: in vivo; details: rat RA model, dose 30 mg/kg.2d; normal control 8.34 ± 1.29, NaCl 32.44 ± 10.32
How it was run: as §2

[5] = tested on: cancer stem cells; assay: Survival rate of cancer stem cells after test compound is added (flow cytometry, Annexin V-FITC/PI, clinical specimen); format: cell-based, patient; details: Homo sapiens, 18 h
How it was run: as §1

[6] = Head and neck squamous cell carcinomas
[7] = read-out: Survival rate (%) All cells (Stem cells and ordinary cells)
[8] = read-out: Survival rate (%) Stem cells

Compound: C=C1C(=O)O[C@@H]2[C@@H]3[C@@H](CCC34CC4)C3(CC[C@@H]12)CC3 [Compound 26]
- viability at 10 µM ([1]; AML): 93%
- viability at 20 µM ([1]; AML): 85%
- viability at 10 µM ([1]; Brain glioma): 88%
- viability at 20 µM ([1]; Brain glioma): 85%
- viability at 10 µM ([1]; Brain tumor): 89%
- viability at 20 µM ([1]; Brain tumor): 85%
- viability at 10 µM ([1]; Breast cancer): 89%
- viability at 20 µM ([1]; Breast cancer): 86%
- viability at 10 µM ([1]; CLL): 93%
- viability at 20 µM ([1]; CLL): 85%
- viability at 10 µM ([1]; CML): 92%
- viability at 20 µM ([1]; CML): 79%
- viability at 10 µM ([1]; Children hepatoblastoma): 93%
- viability at 20 µM ([1]; Children hepatoblastoma): 86%
- viability at 10 µM ([1]; Colon adenocarcinoma): 91%
- viability at 20 µM ([1]; Colon adenocarcinoma): 89%
- viability at 10 µM ([1]; Colorectal cancer): 87%
- viability at 20 µM ([1]; Colorectal cancer): 81%
- viability at 10 µM ([1]; Gastric cancer): 88%
- viability at 20 µM ([1]; Gastric cancer): 84%
- viability at 10 µM ([1]; Gastrointestinal tumor): 93%
- viability at 20 µM ([1]; Gastrointestinal tumor): 88%
- viability at 10 µM ([1]; Glioma): 94%
- viability at 20 µM ([1]; Glioma): 87%
- viability at 10 µM [1, 6]: 91%
- viability at 20 µM [1, 6]: 88%
- viability at 10 µM ([1]; Laryngeal cancer): 88%
- viability at 20 µM ([1]; Laryngeal cancer): 82%
- viability at 10 µM ([1]; Liver cancer): 89%
- viability at 20 µM ([1]; Liver cancer): 87%
- viability at 10 µM ([1]; Lung adenocarcinoma): 91%
- viability at 20 µM ([1]; Lung adenocarcinoma): 87%
- viability at 10 µM ([1]; Lung cancer): 88%
- viability at 20 µM ([1]; Lung cancer): 84%
- viability at 10 µM ([1]; Malignant melanoma): 88%
- viability at 20 µM ([1]; Malignant melanoma): 86%
- viability at 10 µM ([1]; Nasopharynx cancer): 94%
- viability at 20 µM ([1]; Nasopharynx cancer): 81%
- viability at 10 µM ([1]; Ovarian cancer): 91%
- viability at 20 µM ([1]; Ovarian cancer): 84%
- viability at 10 µM ([1]; Pancreatic cancer): 90%
- viability at 20 µM ([1]; Pancreatic cancer): 86%
- viability at 10 µM ([1]; Prostate cancer): 92%
- viability at 20 µM ([1]; Prostate cancer): 89%
- viability at 10 µM ([1]; Retinoblastoma): 91%
- viability at 20 µM ([1]; Retinoblastoma): 85%
- viability at 10 µM ([1]; Skin cancer): 94%
- viability at 20 µM ([1]; Skin cancer): 87%
- Content of IL-1β in culture supernatant of synoviocyte (x ± s) [2]: 0.42 ± 0.052 ng/mL
- viability at 10 µM [3, 7]: 95%
- viability at 10 µM [3, 8]: 94%
- viability at 20 µM [3, 7]: 94%
- viability at 20 µM [3, 8]: 93%
- Content of PGE2 in culture supernatant of synoviocyte (x ± s) [4]: 25.61 ± 5.41 ng/mL
- viability at 10 µM ([5]; AML): 86%
- viability at 20 µM ([5]; AML): 73%
- viability at 10 µM ([5]; Brain glioma): 84%
- viability at 20 µM ([5]; Brain glioma): 76%
- viability at 10 µM ([5]; Brain tumor): 84%
- viability at 20 µM ([5]; Brain tumor): 73%
- viability at 10 µM ([5]; Breast cancer): 85%
- viability at 20 µM ([5]; Breast cancer): 74%
- viability at 10 µM ([5]; CLL): 84%
- viability at 20 µM ([5]; CLL): 74%
- viability at 10 µM ([5]; CML): 88%
- viability at 20 µM ([5]; CML): 76%
- viability at 10 µM ([5]; Children hepatoblastoma): 85%
- viability at 20 µM ([5]; Children hepatoblastoma): 79%
- viability at 10 µM ([5]; Colon adenocarcinoma): 86%
- viability at 20 µM ([5]; Colon adenocarcinoma): 81%
- viability at 10 µM ([5]; Colorectal cancer): 79%
- viability at 20 µM ([5]; Colorectal cancer): 72%
- viability at 10 µM ([5]; Gastric cancer): 83%
- viability at 20 µM ([5]; Gastric cancer): 77%
- viability at 10 µM ([5]; Gastrointestinal tumor): 87%
- viability at 20 µM ([5]; Gastrointestinal tumor): 82%
- viability at 10 µM ([5]; Glioma): 87%
- viability at 20 µM ([5]; Glioma): 76%
- viability at 10 µM [5, 6]: 84%
- viability at 20 µM [5, 6]: 78%
- viability at 10 µM ([5]; Laryngeal cancer): 80%
- viability at 20 µM ([5]; Laryngeal cancer): 75%
- viability at 10 µM ([5]; Liver cancer): 82%
- viability at 20 µM ([5]; Liver cancer): 79%
- viability at 10 µM ([5]; Lung adenocarcinoma): 85%
- viability at 20 µM ([5]; Lung adenocarcinoma): 82%
- viability at 10 µM ([5]; Lung cancer): 82%
- viability at 20 µM ([5]; Lung cancer): 78%
- viability at 10 µM ([5]; Malignant melanoma): 82%
- viability at 20 µM ([5]; Malignant melanoma): 76%
- viability at 10 µM ([5]; Nasopharynx cancer): 85%
- viability at 20 µM ([5]; Nasopharynx cancer): 74%
- viability at 10 µM ([5]; Ovarian cancer): 86%
- viability at 20 µM ([5]; Ovarian cancer): 75%
- viability at 10 µM ([5]; Pancreatic cancer): 86%
- viability at 20 µM ([5]; Pancreatic cancer): 77%
- viability at 10 µM ([5]; Prostate cancer): 86%
- viability at 20 µM ([5]; Prostate cancer): 77%
- viability at 10 µM ([5]; Retinoblastoma): 82%
- viability at 20 µM ([5]; Retinoblastoma): 74%
- viability at 10 µM ([5]; Skin cancer): 86%
- viability at 20 µM ([5]; Skin cancer): 75%
